Measurements taken from patent US10596172B2 (Celgene CAR LLC, priority 2008, dated 2020).
Read-outs that look alike come from different tables or passages of the source.

Assays:
JAK3 = JAK3 (Homo sapiens (Human), UniProt P52333); test: Omnia assay for potency assessment against the active form of JAK3; format: biochemical; settings: read-out: JAK3 Inhibition
Description: Briefly, 10× stocks of EGFR-WT (PV3872) from Invitrogen and EGFR-T790M/L858R (40350) from BPS Bioscience, San Diego, Calif., 1.13×ATP (AS001A) and appropriate Tyr-Sox conjugated peptide substrates (KCZ1001) were prepared in 1× kinase reaction buffer consisting of 20 mM Tris, pH 7.5, 5 mM MgCl2, 1 mM EGTA, 5 mM β-glycerophosphate, 5% glycerol (10× stock, KB002A) and 0.2 mM DTT (DS001A).
The Omnia Assay Protocol for potency assessment against JAK3 was performed in a substantially similar manner as that described in Example 251 above except that the modified JAK3-optimized reagent conditions were:
[JAK3]=5 nM, [ATP]=5 μM, [Y12-Sox]=5 μM (ATP KMapp˜5 μM).

[1] = tested on: B cell lymphoma cell lines; test: B cell lymphoma proliferation assay; format: cell-based
[2] = Homo sapiens, DOHH-2, DOHH2 B cell lymphoma cell line, read-out: EC50 (μM) DOHH2
[3] = Homo sapiens, WSUDLCL2, WSU-DLCL2 B cell lymphoma cell line, read-out: EC50 (μM) WSU-DLCL2
[4] = DHL4 B cell lymphoma cell line, read-out: EC50 (μM) DHL4

Sequence of JAK3 (P52333 whole entry): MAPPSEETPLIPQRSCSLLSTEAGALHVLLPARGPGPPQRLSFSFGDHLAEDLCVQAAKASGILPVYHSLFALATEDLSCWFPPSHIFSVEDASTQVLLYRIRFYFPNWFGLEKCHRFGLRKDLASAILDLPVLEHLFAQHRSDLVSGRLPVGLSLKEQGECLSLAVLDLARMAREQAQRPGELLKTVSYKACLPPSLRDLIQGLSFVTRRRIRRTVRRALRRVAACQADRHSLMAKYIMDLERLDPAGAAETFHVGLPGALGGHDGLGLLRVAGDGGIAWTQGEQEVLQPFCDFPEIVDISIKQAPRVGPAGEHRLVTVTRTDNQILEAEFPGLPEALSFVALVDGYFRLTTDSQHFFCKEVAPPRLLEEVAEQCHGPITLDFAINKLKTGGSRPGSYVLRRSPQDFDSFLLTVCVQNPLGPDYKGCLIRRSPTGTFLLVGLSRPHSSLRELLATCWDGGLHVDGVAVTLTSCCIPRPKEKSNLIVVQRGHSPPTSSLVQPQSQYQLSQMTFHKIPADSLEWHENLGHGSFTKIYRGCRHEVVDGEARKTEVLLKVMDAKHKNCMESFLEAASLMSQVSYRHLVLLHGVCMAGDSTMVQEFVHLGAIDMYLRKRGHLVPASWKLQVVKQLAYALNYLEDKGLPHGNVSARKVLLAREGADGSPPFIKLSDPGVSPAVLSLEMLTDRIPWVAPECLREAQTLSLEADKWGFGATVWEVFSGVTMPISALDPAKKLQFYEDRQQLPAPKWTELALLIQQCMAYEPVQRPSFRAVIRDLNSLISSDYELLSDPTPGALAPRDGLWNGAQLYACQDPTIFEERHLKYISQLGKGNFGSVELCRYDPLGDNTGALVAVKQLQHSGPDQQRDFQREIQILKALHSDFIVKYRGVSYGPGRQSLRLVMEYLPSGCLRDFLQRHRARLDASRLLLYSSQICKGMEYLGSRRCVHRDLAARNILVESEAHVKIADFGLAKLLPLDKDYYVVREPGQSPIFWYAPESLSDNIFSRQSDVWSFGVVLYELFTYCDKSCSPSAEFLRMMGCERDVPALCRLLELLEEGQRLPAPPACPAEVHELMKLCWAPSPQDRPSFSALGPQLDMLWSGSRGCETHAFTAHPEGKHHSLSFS

| IC50 (JAK3) | EC50 [1, 2] | EC50 [1, 3] | EC50 [1, 4] | SMILES |
| --- | --- | --- | --- | --- |
| < 10 nM | – | – | – | C=CC(=O)Nc1cccc(Nc2ncc(C)c(Nc3cccc(Br)c3)n2)c1 [Compound I-9, N-(3-(4-(3-bromophenylamino)-5-methylpyrimidin-2-ylamino)phenyl) acrylamide] |
| 100 to 1000 nM | – | – | – | C/C=C/C(=O)OCc1cccc(Nc2nc(Nc3ccccc3)ncc2C)c1 [Compound I-246, (E)-3-(5-methyl-2-(phenylamino)pyrimidin-4-ylamino)benzyl but-2-enoate] |
| < 10 nM | 0.1 to 1 µM | 1 to 10 µM | – | C=CC(=O)N1CCc2cc(Nc3nc(Nc4cccc(S(N)(=O)=O)c4)ncc3C)ccc2C1 [Compound I-40, 3-(4-(2-acryloyl-1,2,3,4-tetrahydroisoquinolin-6-ylamino)-5-methylpyrimidin-2-ylamino)benzenesulfonamide] |
| < 10 nM | – | – | – | C=CC(=O)Nc1ccc(C)c(Nc2ncc(C)c(Nc3cccc(C)c3)n2)c1 [Compound I-8, N-(4-methyl-3-(5-methyl-4-(m-tolylamino)pyrimidin-2-ylamino)phenyl)acrylamide] |
| 1000 to 10000 nM | – | – | – | C=CC(=O)Nc1cccc(Nc2nc(NC3CCCN(C(C)=O)C3)ncc2F)c1 (stereo not drawn) [Compound I-238, N-(3-(2-(1-acetylpiperidin-3-ylamino)-5-fluoropyrimidin-4-ylamino)phenyl)acrylamide] |
| < 10 nM | – | – | – | C=CC(=O)Nc1cccc(Nc2nccc(Nc3cccc(C)c3)n2)c1 [Compound I-1, N-(3-(4-(m-tolylamino)pyrimidin-2-ylamino)phenyl)acrylamide] |
| < 10 nM | – | – | – | C=CC(=O)Nc1cccc(Nc2ncc(C)c(Nc3ccccc3)n2)c1 [Compound I-5, N-(3-(5-methyl-4-(phenylamino)pyrimidin-2-ylamino)phenyl) acrylamide] |
| < 10 nM | – | – | – | C=CC(=O)Nc1cccc(Nc2nc(Nc3cccc(OCCCNC(=O)OC(C)(C)C)c3)ncc2C)c1 [Compound I-45, tert-butyl 3-(3-(4-(3-acrylamidophenylamino)-5-methylpyrimidin-2-ylamino)phenoxy)propylcarbamate] |
| > 10000 nM | – | – | – | COCCOc1ccc(Nc2ncc(F)c(Nc3cccc(C(=O)C=C(C)C)c3)n2)cc1F [Compound I-323, 1-(3-(5-fluoro-2-(3-fluoro-4-(2-methoxyethoxy)phenylamino)pyrimidin-4-ylamino)phenyl)-3-methylbut-2-en-1-one] |
| < 10 nM | – | – | – | C=CC(=O)Nc1cccc(Nc2nc(Nc3cccc(S(N)(=O)=O)c3)ncc2C)c1 [Compound I-33, N-(3-(5-methyl-2-(3-sulfamoylphenylamino)pyrimidin-4-ylamino)phenyl)acrylamide] |
| – | 1 to 10 µM | 1 to 10 µM | 1 to 10 µM | C=CC(=O)Nc1cccc(Nc2nc(Nc3cccc(OC)c3)ncc2OC)c1 [Compound I-158, N-(3-(5-methoxy-2-(3-methoxyphenylamino)pyrimidin-4-ylamino)phenyl)acrylamide] |
| – | 1 to 10 µM | 1 to 10 µM | 1 to 10 µM | C=CC(=O)N1CCOc2ccc(Nc3nc(Nc4ccc(OCCOC)cc4)ncc3C(C)=O)cc21 [Compound I-150, 1-(6-{5-Acetyl-2-[4-(2-methoxy-ethoxy)-phenylamino]-pyrimidin-4-ylamino}-2,3-dihydro-benzo[1,4]oxazin-4-yl)-propenone] |
| – | 1 to 10 µM | 1 to 10 µM | 1 to 10 µM | C=CC(=O)Nc1cccc(Nc2nc(Nc3cccc(S(N)(=O)=O)c3)ncc2F)c1 [Compound I-160, N-(3-(5-fluoro-2-(3-sulfamoylphenylamino)pyrimidin-4-ylamino)phenyl)acrylamide] |
| – | 1 to 10 µM | 1 to 10 µM | 1 to 10 µM | C=CC(=O)N1Cc2ccc(Nc3nc(Nc4ccc(OC)nc4)ncc3F)cc2C1 [Compound I-165, 1-(5-(5-fluoro-2-(6-methoxypyridin-3-ylamino)pyrimidin-4-ylamino)isoindolin-2-yl)prop-2-en-1-one] |
| – | 0.1 to 1 µM | 1 to 10 µM | – | C=CC(=O)Nc1cccc(Nc2nc(Nc3cccc(OCCO)c3)ncc2F)c1 [Compound I-105, N-(3-(5-fluoro-2-(3-(2-hydroxyethoxy)phenylamino)pyrimidin-4-ylamino)phenyl)acrylamide] |
| 100 to 1000 nM | – | – | – | C=CC(=O)Nc1cccc(Nc2nc(NCc3ccc(OC)cc3)ncc2F)c1 [Compound I-241, N-(3-(5-fluoro-2-(4-methoxybenzylamino)pyrimidin-4-ylamino)phenyl)acrylamide] |

| IC50 (JAK3) | EC50 [1, 2] | EC50 [1, 3] | EC50 [1, 4] | SMILES |
| --- | --- | --- | --- | --- |
| – | > 10 µM | > 10 µM | 1 to 10 µM | C=CC(=O)Nc1cccc(Nc2nc(Nc3ccc(OC)nc3)ncc2C(C)=O)c1 [Compound I-189, N-{3-[5-Acetyl-2-(6-methoxy-pyridin-3-ylamino)-pyrimidin-4-ylamino]-phenyl}-acrylamide] |
| – | 1 to 10 µM | 1 to 10 µM | – | C=CC(=O)Nc1cccc(Nc2nc(Nc3cccc(OC(C)(C)CO)c3)ncc2F)c1 [Compound I-91, N-(3-(5-fluoro-2-(3-(1-hydroxy-2-methylpropan-2-yloxy)phenylamino)pyrimidin-4-ylamino)phenyl)acrylamide] |
| – | 0.1 to 1 µM | 1 to 10 µM | 1 to 10 µM | C=CC(=O)Nc1cccc(Nc2nc(Nc3ccc4[nH]ncc4c3)ncc2F)c1 [Compound I-156] |
| – | 1 to 10 µM | > 10 µM | – | C=CC(=O)Nc1cccc(Nc2nc(Nc3ccc(OC)nc3)ncc2OC)c1 [Compound I-192, N-(3-(5-methoxy-2-(6-methoxypyridin-3-ylamino)pyrimidin-4-ylamino)phenyl)acrylamide] |
| – | 1 to 10 µM | – | – | COCCOc1ccc(Nc2ncc(F)c(Nc3cccc(NC(=O)/C=C/CN4CC[C@@H](O)C4)c3)n2)cc1 [Compound I-89, (R,E)-N-(3-(5-fluoro-2-(4-(2-methoxyethoxy)phenylamino)pyrimidin-4-ylamino)phenyl)-4-(3-hydroxypyrrolidin-1-yl)but-2-enamide] |
| – | 1 to 10 µM | – | – | C=CC(=O)N1CCOc2ccc(Nc3nc(Nc4ccc(OCCO)nc4)ncc3C(C)=O)cc21 [Compound I-128, 1-(6-{5-Acetyl-2-[6-(2-hydroxy-ethoxy)-pyridin-3-ylamino]-pyrimidin-4-ylamino}-2,3-dihydro-benzo[1,4]oxazin-4-yl)-propenone] |
| – | > 10 µM | – | > 10 µM | C=CC(=O)N1CCC[C@@H](Nc2nc(Nc3cccc(OCCN4CCOCC4)c3)ncc2F)C1 [Compound I-135, (R)-1-(3-(5-fluoro-2-(3-(2-morpholinoethoxy)phenylamino)pyrimidin-4-ylamino)piperidin-1-yl)prop-2-en-1-one] |
| – | – | 1 to 10 µM | – | C=CC(=O)Nc1cccc(Nc2nc(Nc3cccc(OCCN(CC)CC)c3)ncc2F)c1 [Compound I-298] |
| – | 1 to 10 µM | – | – | C=CC(=O)Nc1cccc(Nc2nc(Nc3ccc(OCCOC)cc3)ncc2C(C)=O)c1 [Compound I-124, N-(3-{5-Acetyl-2-[4-(2-methoxy-ethoxy)-phenylamino]-pyrimidin-4-ylamino}-phenyl)-acrylamide] |
| – | < 0.1 µM | – | – | C=CC(=O)Nc1cccc(Nc2nc(Nc3ccc4c(c3)N(C)CCO4)ncc2F)c1 [Compound I-126, N-(3-(2-(4-methyl-2,3-dihydrobenzo[1,4]oxazin-6-yl)amino-5-fluoropyrimidin-4-ylamino)phenyl)acrylamide] |
| – | 1 to 10 µM | – | – | C=CC(=O)N1CCOc2ccc(Nc3nc(Nc4ccc(OCCOC)cc4)ncc3F)cc21 [Compound I-141, 1-(6-(5-fluoro-2-(4-(2-methoxyethoxy)phenylamino)pyrimidin-4-ylamino)-2H-benzo[b][1,4]oxazin-4(3H)-yl)prop-2-en-1-one] |
| 10 to 100 nM | – | – | – | C=CC(=O)Nc1ccc(C)c(Nc2nccc(-c3cccnc3)n2)c1 [Compound I-56, N-(4-methyl-3-(4-(pyridin-3-yl)pyrimidin-2-ylamino)phenyl)acrylamide] |
| – | 1 to 10 µM | 1 to 10 µM | – | C=CC(=O)Nc1cccc(Nc2nc(Nc3cccc(OC)c3)ncc2C(N)=O)c1 [Compound I-210, 4-(3-acrylamidophenylamino)-2-(3-methoxyphenylamino)pyrimidine-5-carboxamide] |
| – | 1 to 10 µM | – | – | C=CC(=O)N1CCOc2ccc(Nc3nc(Nc4ccc(N5CCOCC5)nc4)ncc3C(C)=O)cc21 [Compound I-168, 1-{6-[5-Acetyl-2-(6-morpholin-4-yl-pyridin-3-ylamino)-pyrimidin-4-ylamino]-2,3-dihydro-benzo[1,4]oxazin-4-yl}-propenone] |
| – | 1 to 10 µM | – | 1 to 10 µM | C=CC(=O)N1Cc2ccc(Nc3nc(Nc4cccc(OC)c4)ncc3C(F)(F)F)cc2C1 [Compound I-132, 1-(5-(5-trifluoromethyl-2-(3-methoxyphenylamino)pyrimidin-4-yl)amino-1,3-dihydroisoindol-2-yl)2-propen-1-one] |
| 10 to 100 nM | – | – | – | C=CC(=O)Nc1cccc(N(C)c2nc(Nc3ccccc3)ncc2C)c1 [Compound I-34, N-(3-(methyl(5-methyl-2-(phenylamino)pyrimidin-4-yl)amino)phenyl)acrylamide] |
| – | 1 to 10 µM | – | – | C=CC(=O)Nc1cccc(Oc2nc(Nc3ccc(OC)nc3)ncc2C(=O)Nc2ccccc2)c1 [Compound I-159, 4-(3-acrylamidophenoxy)-2-(6-methoxypyridin-3-ylamino)-pyrimidine-5-carboxylic acid phenylamide] |
